According to publication PMC4955970, “Stable, synthetic analogs of diadenosine tetraphosphate inhibit rat and human P2X3 receptors and inflammatory pain” (Molecular Pain, 2016):
“Also recorded” adds a separate entry of the source. Where two headings read alike, the source gives them in different places.

Experiments:
rat P2X4 receptors = target: T1, rat P2X4 receptors (Rattus norvegicus, UniProt P51577); test: Whole-cell patch clamp on HEK293 cells expressing rat P2X4 receptors (ATP-induced currents); format: cell-based; details: 1 µM; 10 µM ATP every 2 min
T1 construct: expressed in transfected cells; host or cells: HEK293
T1 sequence (P51577 1-388): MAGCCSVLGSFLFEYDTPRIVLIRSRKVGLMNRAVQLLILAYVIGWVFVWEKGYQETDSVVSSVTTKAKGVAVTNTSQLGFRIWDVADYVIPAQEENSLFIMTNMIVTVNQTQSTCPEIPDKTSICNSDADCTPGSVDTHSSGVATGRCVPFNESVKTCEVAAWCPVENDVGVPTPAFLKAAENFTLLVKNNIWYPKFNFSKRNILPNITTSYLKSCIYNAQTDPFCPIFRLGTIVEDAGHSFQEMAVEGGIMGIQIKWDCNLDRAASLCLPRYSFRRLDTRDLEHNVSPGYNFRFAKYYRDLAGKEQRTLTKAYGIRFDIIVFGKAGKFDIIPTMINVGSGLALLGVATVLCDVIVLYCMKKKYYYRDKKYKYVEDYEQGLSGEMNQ

rat P2X2 receptors = target: T2, rat P2X2 receptors (Rattus norvegicus, UniProt P49653); test: Whole-cell patch clamp on HEK293 cells expressing rat P2X2 receptors (ATP-induced currents); format: cell-based; details: 1 µM; 10 µM ATP every 2 min
T2 construct: expressed in transfected cells; host or cells: HEK293
T2 sequence (P49653 1-472): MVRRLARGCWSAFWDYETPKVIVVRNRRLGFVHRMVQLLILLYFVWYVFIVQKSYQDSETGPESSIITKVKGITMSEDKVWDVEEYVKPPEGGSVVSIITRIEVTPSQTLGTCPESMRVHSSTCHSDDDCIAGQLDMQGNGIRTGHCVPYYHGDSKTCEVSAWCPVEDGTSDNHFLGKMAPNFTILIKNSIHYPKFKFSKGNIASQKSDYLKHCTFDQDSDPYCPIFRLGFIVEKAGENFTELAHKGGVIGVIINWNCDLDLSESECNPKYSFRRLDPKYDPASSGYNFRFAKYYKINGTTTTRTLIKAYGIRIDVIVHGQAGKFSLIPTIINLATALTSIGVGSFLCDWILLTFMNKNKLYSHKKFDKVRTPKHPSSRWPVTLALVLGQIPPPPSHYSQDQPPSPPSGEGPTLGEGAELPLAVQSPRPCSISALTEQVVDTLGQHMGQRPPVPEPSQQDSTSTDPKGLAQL

[1] = tested on: native P2X3Rs / P2X2/3Rs in NG neurons; test: Whole-cell recording of α,β-meATP currents in cultured nodose ganglion (NG) neurons; format: cell-based, rat; details: 1 µM, 6 min; 10 µM α,β-meATP
Method: (§1) Rat trigeminal, nodose, or dorsal root ganglion (TG, NG, and DRG, respectivley) neurons in culture were prepared as described previously.[46],[47] Neurons were plated on poly-L-lysine (0.2 mg/ml)-coated Petri dishes and cultured for one to two days under an atmosphere containing 5% CO2. Cells were used within two days of plating when they lacked processes. HEK293T cells were prepared as reported previously[32],[48] and transfected with rat or human full-length P2X3 cDNA subcloned into pIRES2-EGFP (Clontech, Mountain View, CA, USA).
(§2) TG, NG, DRG, or HEK cells were recorded in the whole-cell configuration while being continuously superfused (at 2 ml/min) with control solution containing (in mM): 152 NaCl, 5 KCl, 1 MgCl2, 2 CaCl2, 10 glucose, and 10 HEPES; pH was adjusted to 7.4 with NaOH and osmolarity was adjusted to 320 mOsM with glucose. […] Responses to selective P2X3R agonist α,β-methylene-ATP (α,β-meATP; resistant to ectoATPase hydrolysis, Sigma-Aldrich) were measured using an EPC-9 amplifier operated by HEKA Patch Master software (HEKA Electronik, Germany). Cells were voltage-clamped at −70 mV. In most cells, series resistance was compensated by 80%. To determine EC50 values, dose-response curves were constructed for α,β-meATP by administering different agonist doses same cells and fitting data to a logistic equation (Origin 8.0, Microcal, Northampton, MA). […]

[2] = target: T3, native P2X3Rs / P2X2/3Rs in NG neurons (Rattus norvegicus, UniProt P49653+P49654); test: as above; format: cell-based; details: read-out: inhibition of sustained residual component in NG neurons
T3 construct: effects of AppNHppA on native P2X3Rs in TG, DRG, and NG neurons were investigated; while NG neurons express heteromeric P2X2/3Rs subunits; endogenous in cells; host or cells: cultured rat nodose ganglion (NG) neurons
T3 sequence (P49654 1-397): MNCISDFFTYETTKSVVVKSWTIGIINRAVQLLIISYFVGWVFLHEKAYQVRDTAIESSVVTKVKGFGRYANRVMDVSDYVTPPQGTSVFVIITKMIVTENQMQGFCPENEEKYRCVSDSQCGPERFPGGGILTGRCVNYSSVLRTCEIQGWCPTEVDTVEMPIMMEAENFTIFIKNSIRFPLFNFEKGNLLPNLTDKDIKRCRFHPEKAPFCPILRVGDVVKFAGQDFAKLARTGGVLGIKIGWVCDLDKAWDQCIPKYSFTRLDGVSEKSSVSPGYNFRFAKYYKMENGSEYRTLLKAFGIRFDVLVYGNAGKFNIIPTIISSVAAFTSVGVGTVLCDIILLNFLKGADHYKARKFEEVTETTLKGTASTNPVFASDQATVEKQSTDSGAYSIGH
T3 sequence (P49653 1-472): T2 sequence (P49653 1-472)
Method: as §1, §2

[3] = target: T4, native P2X3Rs in DRG neurons (Rattus norvegicus, UniProt P49654); test: Whole-cell recording of α,β-meATP currents in cultured dorsal root ganglion (DRG) neurons; format: cell-based; details: DRG neuron, read-out: inhibition of sustained residual component in DRG neurons
T4 construct: effects of AppNHppA on native P2X3Rs in TG, DRG, and NG neurons were investigated; endogenous in cells; host or cells: cultured rat trigeminal ganglion (TG) or dorsal root ganglion (DRG) neurons
T4 sequence (P49654 1-397): T3 sequence (P49654 1-397)
T4 sequence (P49653 1-472 partner): T2 sequence (P49653 1-472)
Method: as §1, §2

[4] = target: T5, native P2X3Rs in DRG neurons (Rattus norvegicus, UniProt P49654); test: as above; format: cell-based; details: DRG neuron, read-out: inhibition of peak currents in DRG neurons
T5 construct: effects of AppNHppA on native P2X3Rs in TG, DRG, and NG neurons were investigated; endogenous in cells; host or cells: cultured rat trigeminal ganglion (TG) or dorsal root ganglion (DRG) neurons
T5 sequence (P49654 1-397): T3 sequence (P49654 1-397)
Method: as §1, §2

- inhibition at 1 µM [2]: 2 ± 4%
- inhibition at 1 µM [3]: 18 ± 6%
- inhibition at 1 µM [4]: 79.2 ± 5.6%
SMILES: Nc1ncnc2c1ncn2[C@@H]1O[C@H](COP(=O)(O)OP(=O)(O)NP(=O)(O)OP(=O)(O)OC[C@H]2O[C@@H](n3cnc4c(N)ncnc43)[C@H](O)[C@@H]2O)[C@@H](O)[C@H]1O [AppNHppA, diadenosine 5′,5′′′-P^1,P^4-(β,γ-imido)tetraphosphate]
- HAD or partial agonism effect on P2X4R-mediated currents (rat P2X4 receptors): did not produce any HAD or partial agonism effects; also recorded: does not inhibit
- HAD or partial agonism effect on P2X2R-mediated currents (rat P2X2 receptors): did not produce any HAD or partial agonism effects; also recorded: does not inhibit
- inhibition of peak currents in NG neurons [1]: 16.8 ± 11.8%
